Data reported in publication PMC8815882, “Screening the pandemic response box identified benzimidazole carbamates, Olorofim and ravuconazole as promising drug candidates for the treatment of eumycetoma” (PLoS Neglected Tropical Diseases, 2022).
Values after ≈ are worked out from the molar mass of the structure shown. Where two headings read alike, the source gives them in different places.

Assays:
[1] = tested on: M. mycetomatis genome strain MM55; test: CLSI M38-A2 based in vitro susceptibility screening (XTT or resazurin), growth at fixed concentration; type: cell-based, Madurella mycetomatis; settings: Madurella mycetomatis
[2] = tested on: M. mycetomatis MM55; test: IC50 determination, 2-fold dilution series; type: cell-based, Madurella mycetomatis; settings: for IC50 / IC90: Madurella mycetomatis
[3] = tested on: M. mycetomatis; test: Drug static or cidal; type: cell-based, Madurella mycetomatis
Description: Supplement pntd.0010159.s001.xlsx, sheet "Pandemic Box Master sheet" | column: Drug static or cidal

[4] = tested on: F. senegalensis strain CBS132257; test: CLSI M38-A2 based in vitro susceptibility screening at 25 μM; type: cell-based, Falciformispora senegalensis; settings: selected if >75% (resazurin) or >80% (XTT) fungal growth inhibited
[5] = tested on: Me. romeroi strain CBS128765; test: as above; type: cell-based, Medicopsis romeroi; settings: selected if >75% (resazurin) or >80% (XTT) fungal growth inhibited
[6] = tested on: M. mycetomatis isolate MM55; test: M. mycetomatis grain infection model in G. mellonella larvae, survival; type: in vivo, Galleria mellonella; set-up: In vivo efficacy, Larvae survival %: concentration or dose not given beside the values
[7] = tested on: ten different M. mycetomatis isolates; set-up: method as in PMID 24945848, PMID 22964246, PMID 31904836; settings: asterisk: determined in previous works ref 19-21; cited from earlier work
[8] = mean of replicates, read-out: Percentage survival at 25um, 25 uM mean
[9] = replicate A, read-out: Percentage survival at 25um, 25 um A
[10] = replicate B, read-out: Percentage survival at 25um, 25 uM B
[11] = replicate C, read-out: Percentage survival at 25um, 25 uM C
[12] = mean of replicates, read-out: Percentage survival at 100um, 100 uM mean
[13] = replicate 1, read-out: Percentage survival at 100um, 100 uM A
[14] = replicate 2, read-out: Percentage survival at 100um, 100 uM A
[15] = replicate 3, read-out: Percentage survival at 100um, 100 uM A
[16] = MM55, mean of replicates, read-out: IC50 mean
[17] = MM55, replicate 1, read-out: IC50 1
[18] = MM55, replicate 1, read-out: IC90 1
[19] = MM55, replicate 2, read-out: IC50 2
[20] = MM55, replicate 2, read-out: IC90 2
[21] = MM55, replicate 3, read-out: IC50 3
[22] = MM55, replicate 3, read-out: IC90 3

IC50 [2, 16]	IC50 [2, 17]	IC90 [2, 18]	IC50 [2, 19]	IC90 [2, 20]	IC50 [2, 21]	IC90 [2, 22]	Structure (SMILES)	activity at 25 µM [1, 8]	activity at 25 µM [1, 9]	activity at 25 µM [1, 10]	activity at 25 µM [1, 11]	activity at 100 µM [1, 12]	activity at 100 µM [1, 13]	activity at 100 µM [1, 14]	activity at 100 µM [1, 15]	Drug static or cidal [3]	further results
> 25 µM	> 25 µM	> 25 µM	> 25 µM	> 25 µM	> 25 µM	> 25 µM	Cc1ccc(NC(=O)c2cc(Cl)ccc2O)cc1 [MMV1578897]	4.86%	3.43%	0.378%	10.8%	2.02%	2.19%	0.189%	3.69%	Static	IC90 ([2]; MM55, mean of replicates, read-out: IC90 mean): > 25 µM
15.8 µM							CN1CCN(Cc2ccc(-c3cnc4[nH]cc(-c5ccc6[nH]ccc6c5)c4c3)cc2)CC1 [MMV1580482]		0.0624%	1.21%	7.33%					Static	activity at 25 µM ([1]; mean of three replicates, read-out: Percentage survival at 25um, 25 uM mean): 2.87%; activity at 100 µM ([1]; first replicate column, read-out: Percentage survival at 100um, 100 uM A): 27.2%; activity at 100 µM ([1]; mean of three replicates, read-out: Percentage survival at 100um, 100 uM mean): 16.3%; activity at 100 µM ([1]; second replicate column, read-out: Percentage survival at 100um, 100 uM A): 11.5%; activity at 100 µM ([1]; third replicate column, read-out: Percentage survival at 100um, 100 uM A): 10.2%; IC50 ([2]; MM55, replicate 1, read-out: IC50 1 um): 17.4 µM; IC90 ([2]; MM55, replicate 1, read-out: IC90 1 um): > 25 µM; IC50 ([2]; MM55, replicate 2, read-out: IC50 2 um): 15.3 µM; IC90 ([2]; MM55, replicate 2, read-out: IC90 2 um): 22.8 µM; IC50 ([2]; MM55, replicate 3, read-out: IC50 3 um): 14.6 µM; IC90 ([2]; MM55, replicate 3, read-out: IC90 3 um): 22.2 µM
	< 0.098 µM	< 0.098 µM	1.04 µM	4 µM	< 0.098 µM	2.75 µM	C[C@@H](c1nc(-c2ccc(C#N)cc2)cs1)[C@](O)(Cn1cncn1)c1ccc(F)cc1F [MMV1634362, Ravuconazole]		-3.16%	-3.36%	3.22%						activity at 25 µM ([1]; mean, read-out: Percentage survival at 25um, 25 uM mean): -1.1%; activity at 100 µM ([1]; mean, read-out: Percentage survival at 100um, 100 uM mean): 4.1%; activity at 100 µM ([1]; replicate (first column), read-out: Percentage survival at 100um, 100 uM A): -3.18%; activity at 100 µM ([1]; replicate (second column), read-out: Percentage survival at 100um, 100 uM A): 5.51%; activity at 100 µM ([1]; replicate (third column), read-out: Percentage survival at 100um, 100 uM A): 9.97%; Inhibits growth of Falciformispora senegalensis at 25 μM [4]: neither F. senegalensis nor Me. romeroi growth were inhibited; Inhibits growth of Medicopsis romeroi at 25 μM [5]: neither F. senegalensis nor Me. romeroi growth were inhibited; Drug static or cidal [2]: Cidal; IC50 ([2]; MM55, Table 2, M. mycetomatis MM55, read-out: IC50): 0.01 µM; IC50 ([2]; MM55, mean, read-out: IC50 mean): < 0.098 µM; Larvae survival rate on day ten ([6]; 20 μM per larvae at 4, 28, 52 h after infection, day ten): 26.7%; Effect on larvae survival Day 4 (words) ([6]; 20 μM per larvae, vs infected control, day four): prolonged larvae survival; Effect on larvae survival Day 10 (words) ([6]; 20 μM per larvae, vs infected control, day ten): able to prolong larvae survival; In vivo efficacy, Enhanced survival compared to control? ([6]; in vivo): yes *; In vivo efficacy, Larvae survival % ([6]; in vivo): 26.7%; MIC50 [7]: 0.01 µM (≈ 4.37 ng/mL); MIC range [7]: 0.004 to 0.06 µM
13.4 µM	15.2 µM	23.2 µM	11.5 µM	21.7 µM	13.5 µM	> 25 µM	O=C(Nc1nnc(-c2ccc(Cl)cc2)o1)c1ccc(F)cc1 [MMV1782140]	8.95%	5.38%	8.31%	13.2%	2.78%	-0.102%	3.75%	4.7%	Cidal	
